These results are taken from ChEMBL document CHEMBL4742385 (2019).

One may read the inhibition as the relative decrease from the control value, in per cent.

One test deals with RPMI-8226. The experiment in a line: Antiproliferative activity against human RPMI-8226 assessed as inhibition of cell growth at 1 uM after 8 days measured after Celltiter-Glo assay relative to control. The settings on record: Homo sapiens, RPMI-8226, 192 h, time 8 day. In kind it is functional. Background: ATP-based viability assays read luminescence as a measure of living cells.

Test [1] concerns the target Cyclin-C/Cyclin-dependent kinase 19 (Homo sapiens) (UniProt Q9BWU1+P24863). As to the kind of experiment: Inhibition of humanGST-tagged CDK19/Cyc C expressed in Sf21 cells at 1 uM measured after 1 hr by fluorescence plate reader relative to control.
For test [2], the target named is CDK8/Cyclin C (Homo sapiens) (UniProt P49336+P24863). As to the kind of experiment: Inhibition of human CDK8/Cyc C expressed in Sf21 cells at 1 uM measured after 1 hr by fluorescence plate reader relative to control.

As for `Cn1cc(-c2ccncc2/C=C/C(=O)Nc2ccc3c(c2)CCO3)cn1`, in the test with RPMI-8226, the inhibition at 1 µM came to 55%. Besides, the inhibition in test [1] was 95%; in test [2], 96%.

As for `Cn1cc(-c2ccncc2/C=C/C(=O)Nc2ccc(CN3CCN4CCCC4C3)cc2)cn1` (stereo not drawn), the inhibition at 1 µM in the test with RPMI-8226 was determined as 59%. Also, the inhibition in test [1] was 74%; in test [2] it was 100%.

In the case of `O=C(/C=C/c1cnccc1-c1cnn(C2CC2)c1)Nc1ccc(C2CC2)cc1`, the inhibition at 1 µM in the test on RPMI-8226 was 53%. Also, the figures for the inhibition in test [1] and in test [2] were 89% and 95%, respectively.

For `Cc1noc(C)c1-c1ccc(NC(=O)/C=C/c2cnccc2-c2cnn(C3CC3)c2)c(F)c1`, the inhibition at 1 µM with RPMI-8226 came to 58%. The inhibition amounted to 98% in test [1] and 103% in test [2].

With `CC1CN(Cc2ccc(NC(=O)/C=C/c3cnccc3-c3cnn(C)c3)cc2)CCO1` (stereo not drawn), the inhibition at 1 µM in the test on RPMI-8226 amounted to 55%. Moreover, the inhibition in test [1] turned out to be 97%; in test [2] it was 99%.

Regarding `O=C(/C=C/c1cnccc1-c1cnn(CC2CC2)c1)Nc1ccc(CCN2CCOCC2)cc1`, the inhibition at 1 µM with RPMI-8226 stood at 58%. For the same compound, the inhibition in test [1] came out at 97%; in test [2], 94%.

Consider `CC(c1ccc(NC(=O)/C=C/c2cnccc2-c2cnn(C)c2)cc1)N1CCOCC1` (stereo not drawn), for which, in the test with RPMI-8226, the inhibition at 1 µM worked out at 57%. In addition, the inhibition came out at 98% in test [1] and 96% in test [2].

As to `Cn1cc(-c2ccncc2/C=C/C(=O)Nc2ccc(CN3CCOCC3)cc2)cn1`, in the test with RPMI-8226, the inhibition at 1 µM worked out at 60%. Moreover, the inhibition came out at 98% in test [1] and 100% in test [2].

For the compound `CC(C)(F)Cc1ccc(NC(=O)/C=C/c2cnccc2-c2cnn(C3CC3)c2)cc1`, the inhibition at 1 µM in the test on RPMI-8226 was found to be 61%. Further, the inhibition in test [1] stood at 95%; in test [2], 102%.

Regarding `Cn1cc(-c2ccncc2/C=C/C(=O)Nc2ccc(CN3CCC4(CC3)COC4)cc2)cn1`, the inhibition at 1 µM with RPMI-8226 is 60%. Besides, the inhibition in test [1] and in test [2] was 97% each time.

With `Cn1cc(-c2ccncc2/C=C/C(=O)Nc2ccc(CN3CCOCC3)cc2F)cn1`, the inhibition at 1 µM in the test on RPMI-8226 turned out to be 56%. Moreover, the inhibition stood at 97% in test [1] and 99% in test [2].

Regarding `Cn1cnc2ccc(-c3c(F)cncc3/C=C/C(=O)Nc3ccc(CN4CC(F)(F)C4)cc3)cc21`, the inhibition at 1 µM in the test with RPMI-8226 was found to be 67%. The inhibition was 101% in test [1] and 87% in test [2].

With `Cn1cc(-c2c(F)cncc2/C=C/C(=O)Nc2ccc(CN3CCOCC3)cc2)cn1`, the inhibition at 1 µM in the test on RPMI-8226 turned out to be 67%. For the same compound, the inhibition in test [1] and in test [2] was 100% throughout.

As for `O=C(/C=C/c1cnccc1-c1cnn(CC2CC2)c1)Nc1ccc(CN2CCOCC2)cc1`, in the test on RPMI-8226, the inhibition at 1 µM is 55%. The values for the inhibition in test [1] and in test [2] were 99% and 98%, respectively.

As to `CC1COCCN1Cc1ccc(NC(=O)/C=C/c2cnccc2-c2cnn(C)c2)cc1` (stereo not drawn), the inhibition at 1 µM in the test on RPMI-8226 came out at 55%. For the same compound, the figures for the inhibition in test [1] and in test [2] were 95% and 100%, respectively.

Turning to `COc1ncc(-c2ccncc2/C=C/C(=O)Nc2ccc(CN3CCOCC3)cc2F)s1`, the inhibition at 1 µM in the test with RPMI-8226 was 63%. Besides, the inhibition in test [1] was determined as 96%; in test [2], 99%.

Regarding `Cn1cc(-c2ccncc2/C=C/C(=O)Nc2ccc3c(c2)CN(CC(F)F)C3)cn1`, in the test on RPMI-8226, the inhibition at 1 µM is 63%. Also, the results for the inhibition in test [1] and in test [2] were 94% and 105%, respectively.

Regarding `O=C(/C=C/c1cnccc1-c1cnn(C2CC2)c1)Nc1ccc2c(c1)CN(C(=O)C(F)(F)F)CC2`, the inhibition at 1 µM in the test on RPMI-8226 was 57%. In addition, the inhibition in test [1] and in test [2] was 98% throughout.

Regarding `O=C(/C=C/c1cnccc1-c1cnn(C2CC2)c1)Nc1ccc2c(c1)CCN(CC(F)(F)F)C2`, the inhibition at 1 µM in the test on RPMI-8226 was found to be 49%. The inhibition amounted to 98% in test [1] and 103% in test [2].

For the compound `COC(C)(C)Cc1ccc(NC(=O)/C=C/c2cnccc2-c2cnn(C3CC3)c2)cc1`, the inhibition at 1 µM with RPMI-8226 came out at 67%. In addition, the inhibition in test [1] was determined as 94%; in test [2], 101%.

With `O=C(/C=C/c1cnccc1-c1cnn(C2CC2)c1)Nc1ccc2c(c1)CN(CC(F)(F)F)CC2`, in the test with RPMI-8226, the inhibition at 1 µM was 63%. Moreover, the inhibition was found to be 102% in test [1] and 98% in test [2].

In the case of `Cn1cc(-c2ccncc2/C=C/C(=O)Nc2ccc(CNC3CC3)cc2)cn1`, the inhibition at 1 µM in the test on RPMI-8226 was 56%. The inhibition is 96% in test [1] and 95% in test [2].

As for `Cn1cc(-c2ccncc2/C=C/C(=O)Nc2ccc(CN3CCOC(C)(C)C3)cc2)cn1`, the inhibition at 1 µM in the test on RPMI-8226 amounted to 61%. Besides, the inhibition in test [1] came to 101%; in test [2] it was 97%.

With `CCn1cc(-c2ccncc2CCC(=O)Nc2ccc(CN3CCOCC3)cc2)cn1`, the inhibition at 1 µM in the test on RPMI-8226 was 62%. Also, the figures for the inhibition in test [1] and in test [2] were 85% and 90%, respectively.

As for `CC(=O)N(C)Cc1cc(NC(=O)/C=C/c2cnccc2-c2cnn(C)c2)ccc1C`, the inhibition at 1 µM in the test on RPMI-8226 was 49%. The results for the inhibition in test [1] and in test [2] were 93% and 95%, respectively.

Regarding `Cn1cc(-c2ccncc2/C=C/C(=O)Nc2ccc3c(c2)CCC3=O)cn1`, the inhibition at 1 µM in the test with RPMI-8226 was determined as 54%. Besides, the inhibition in test [1] was found to be 87%; in test [2], 92%.

In the case of `Cn1cc(-c2ccncc2/C=C/C(=O)Nc2ccc(CN3CC4CCC(C3)O4)cc2)cn1`, the inhibition at 1 µM in the test on RPMI-8226 came out at 61%. The values for the inhibition in test [1] and in test [2] were 97% and 96%, respectively.

Consider `Cn1cc(-c2ccncc2/C=C/C(=O)Nc2ccc(CN3CC(F)(F)OC(F)(F)C3)cc2)cn1`, for which the inhibition at 1 µM in the test on RPMI-8226 was found to be 55%. The values for the inhibition in test [1] and in test [2] were 98% and 97%, respectively.

For `Cn1cc2cc(-c3ccncc3/C=C/C(=O)Nc3ccc(CN4CCOCC4)cc3)ccc2n1`, in the test on RPMI-8226, the inhibition at 1 µM is 52%. Besides, the inhibition is 93% in test [1] and 97% in test [2].

In the case of `Cn1cc(-c2ccncc2/C=C/C(=O)Nc2ccc(CN3CCOCC3)c(Cl)c2)cn1`, the inhibition at 1 µM in the test on RPMI-8226 amounted to 53%. For the same compound, the inhibition in test [1] and in test [2] was 99% in each case.

As to `Cn1cc(-c2ccncc2/C=C/C(=O)Nc2ccc3c(c2)OCC3)cn1`, in the test with RPMI-8226, the inhibition at 1 µM is 55%. For the same compound, the inhibition in test [1] amounted to 94%; in test [2], 100%.

With `Cn1ccc2cc(NC(=O)/C=C/c3cnccc3-c3cnn(C4CC4)c3)ccc21`, the inhibition at 1 µM in the test with RPMI-8226 was 61%. Further, the inhibition in test [1] was 97%; in test [2] it was 100%.

As to `O=C(/C=C/c1cnccc1-c1cnn(C2CC2)c1)Nc1ccc2c(c1)CN(CC(F)(F)CO)C2`, the inhibition at 1 µM with RPMI-8226 was found to be 65%. The figures for the inhibition in test [1] and in test [2] were 96% and 102%, respectively.

With `O=C(/C=C/c1cnccc1-c1cnn(C2CC2)c1)Nc1ccc2c(c1)CN(CC(F)(F)F)C2`, the inhibition at 1 µM in the test on RPMI-8226 came out at 47%. Also, the inhibition stood at 101% in test [1] and 103% in test [2].

Consider `Cn1cc(-c2ccncc2/C=C/C(=O)Nc2ccc(N3CC(F)(F)C3)cc2)cn1`, for which, in the test with RPMI-8226, the inhibition at 1 µM amounted to 50%. Moreover, the results for the inhibition in test [1] and in test [2] were 99% and 105%, respectively.

`O=C(/C=C/c1cnccc1-c1cnn(CC2(F)CC2)c1)Nc1ccc(CN2CCOCC2)cc1`: in the test with RPMI-8226, the inhibition at 1 µM amounted to 57%. The results for the inhibition in test [1] and in test [2] were 101% and 99%, respectively.
